Assay results reported in patent US11192890B2, “FGFR kinase inhibitors and pharmaceutical uses” (AUCKLAND UNISERVICES LIMITED, priority 2017, dated 2021).
Like-named read-outs stand apart in the source and are kept apart here.

Experiments:
SUM52 cells = test: Oxic and anoxic anti-proliferative activity of the prodrugs
[1] = system: SW780 (FGFR3-amplified bladder cancer) xenograft; test: Anti-tumour activity, SW780 xenograft; format: in vivo, NIH-III nude mice; conditions: q3dx4, IP
Protocol: Specific pathogen-free homozygous female NIH-III nude mice (Charles River Laboratories, Wilmington, Mass.) were inoculated subcutaneously with a single cell suspension of SW780 cells (8×10^6 cells/100 μL with Matrigel; right flank) or SNU-16 cells (10×10^6 cells/100 μL; right flank). When tumour xenografts were established (typically 7-14 days for SW780 and 21-28 days for SNU-16) mice were randomized to treatment groups. Test compounds of the present invention were prepared in Water for Injection (WFI). Mice were dosed by intraperitoneal injection (0.01-0.03 ml/g) using the stated schedules and dose levels. […] Tumour size and body weights were measured at regular intervals. Tumour volume was calculated as […] (length×width^2)/6.

SW780 cells = test: Oxic and anoxic anti-proliferative activity of the prodrugs; format: cell-based
[2] = Murine plasma pharmacokinetics assay; format: in vivo, NIH-III nude mice; conditions: for AUC(0-inf) / half-life / Cmax / Tmax / AUC(0-t): female, NIH-III nude, mouse, ip, plasma; for AUC(0-t): observed, read-out: AUC0-24
Protocol: Compound 204 was formulated in water for injection at 2 or 4 mg/ml to be administered by intraperitoneal injection at 0.02 ml/g body weight to achieve a 40 or 80 mg/kg dose. Specific pathogen-free female NIH-III mice (Crl:NIH Lyst^bg Foxn1^nu Btk^xid) were obtained from the Vernon Jansen Unit (VJU), The University of Auckland. To minimize exogenous infection, mice were maintained in individually ventilated cages at 6 mice per cage (Sealsafe Plus Mouse AERO, Tecniplast) and handled in accordance with the Guide for the Care and Use of Laboratory Animals, The University of Auckland. Mice had access to water and food ad libitum. Following dosing, at the specified time points (0.5, 1, 2, 4, 6 and 24 hours, n=3 per time point) mice were anaesthetised (isoflurane inhalation) and blood collected through cardiac puncture. Mice were subsequently culled via cervical dislocation whilst anaesthetized. Blood was collected in ice cold tubes (BD Microtainer® containing K2EDTA) and centrifuged (7 minutes at 6,500 rpm) to separate the plasma fraction. Plasma samples were stored at −80° C. until analysis. Control mice were injected with vehicle only and plasma collected as described. Prior to analysis by LC-MS/MS, calibration standards were prepared in control mouse plasma with a synthetic standard of Compound 204. Plasma samples expected to be outside the range of these standards were diluted in control mouse plasma. Standards and samples were mixed with 3 volumes of ice-cold acetonitrile containing internal standard (2 uL) and then centrifuged at 13000 rpm for 10 minutes at 4° C. The resulting supernatant was diluted in 2 volumes of 0.01% formic acid in water and 10 uL injected onto the LC-MS/MS system using an established quantitative analysis method. Pharmacokinetic parameters resulting from model fit of Compound 204 plasma concentration-time data were then derived where Tmax=time at maximum concentration, Tmax-obs=time at maximum observed concentration, Cmax-obs=maximum concentration observed, Cmax=maximum concentration determined by model, T1/2=half-life of Compound 204 in plasma during elimination phase, AUC0-24=observed area under the mean concentration-time curve, AUC0-inf=area under the concentration-time curve of the model fit.

[3] = system: SNU-16 (FGFR2-amplified) gastric cancer xenograft; test: Anti-tumour activity, SNU-16 xenograft; format: in vivo, NIH-III nude mice; conditions: 80 mg/kg, q7dx2, IP; to day 11
Protocol: Specific pathogen-free homozygous female NIH-III nude mice (Charles River Laboratories, Wilmington, Mass.) were inoculated subcutaneously with a single cell suspension of SW780 cells (8×10^6 cells/100 μL with Matrigel; right flank) or SNU-16 cells (10×10^6 cells/100 μL; right flank). […] Test compounds of the present invention were prepared in Water for Injection (WFI). Mice were dosed by intraperitoneal injection (0.01-0.03 ml/g) using the stated schedules and dose levels. […] Tumour size and body weights were measured at regular intervals. Tumour volume was calculated as n (length×width^2)/6.

[4] = Pulse radiolysis of prodrugs; format: physicochemical
H520 cells = test: Oxic and anoxic anti-proliferative activity of the prodrugs
[5] = system: SiHa xenograft (tumour hypoxia); test: EF5 immunostaining and MALDI imaging mass spectrometry assay; format: in vivo, NIH-III nude mice; conditions: 86 mg/kg IP, tumours collected after 24 hours; EF5 60 mg/kg
Protocol: SiHa cervical tumour cells were implanted into the flanks of female NIH-III mice to form subcutaneous xenografts. […] Vehicle and drug-treated SiHa tumours were sectioned at 12 um and collected by melting. Five serial sections were collected from each sample such that sections 1, 3 and 5 were mounted on a standard glass slide for optical microscopy, while sections 2 and 4 were mounted on ITO coated glass slides for MALDI imaging. Slides were stored at −80° C. until required.
Imaging mass spectrometry was performed at 30 um spatial resolution using a MALDI FT-ICR mass spectrometer (Bruker Solarix-XR 7T) operating in positive ion mode. […] They were washed in dH2O for 5 minutes, in Tris-Buffered saline (TBS) for 10 minutes and blocked with 10% goat serum in TBS and 1% Tween-20, for 1 h, at room temperature. Sections were then incubated with Alexa488-ELK3-51 antibody (Hypoxia-Imaging.org, University of Pennsylvania, US) that recognises EF5 adducts in hypoxic cells and counterstained with DAPI.

[6] = system: 4T1 murine syngeneic breast cancer cells; test: Anti-tumour activity, murine 4T1 model; format: in vivo, BALB/c mice; conditions: 70 mg/kg IP, controls 16 days
Protocol: Studies in BALB/c mice: 4T1 murine syngeneic breast cancer cells (7.5×10^6 cells/mouse) were implanted into the subcutaneous space, in the right flank of immunocompetent BALB/c female mice. Treatment with Compound 204 started at the stated day post cell-implant. Compound 204 was administered intraperitoneally at the stated dose and schedule in Water for Injection. Tumour measurements and body weight were recorded every day, until all tumours increased their volume 4-fold (RTV^4) from day0 of experimental assignment.

## COc1cc(OC)c(Cl)c(N2Cc3cnc(Nc4ccccc4)nc3N(C3CCN(C(=O)/C=C/C[N+](C)(C)Cc4c([N+](=O)[O-])ncn4C)CC3)C2=O)c1Cl.[Br-] [Compound 204, (E)-4-(4-(3-(2,6-dichloro-3,5-dimethoxyphenyl)-2-oxo-7-(phenylamino)-3,4-dihydropyrimido[4,5-d]pyrimidin-1(2H)-yl)piperidin-1-yl)-N,N-dimethyl-N-((1-methyl-4-nitro-1H-imidazol-5-yl)methyl)-4-oxobut-2-en-1-aminium bromide]
SUM52 cells; SUM52, oxic
  fold less potent than the inhibitor compound 112 at inhibiting proliferation (deactivation): 296 fold
SUM52 cells; ratio of oxic and anoxic IC50
  Hypoxic Cytotoxicity Ratio (HCR), SUM52: 12
SUM52 cells; read-out: Cellular Anti-proliferative IC50, SUM52, Anoxic, 4 hours of anoxia, remainder of assay oxic
  IC50: 17 nM
SUM52 cells; read-out: Cellular Anti-proliferative IC50, SUM52, Oxic, oxic conditions
  IC50: 207 nM
[1]; 100 umol/kg dose
  time for tumours to reach RTV4: approximately 26 days
[1]; 30 to 133 umol/kg/dose
  tumour response at the higher doses tested: regressed the tumours
SW780 cells; Homo sapiens, SW780, oxic conditions, read-out: Cellular Anti-proliferative IC50, SW780, Oxic
  IC50: 1390 nM
SW780 cells; SW780, oxic
  fold less potent than the inhibitor compound 112 at inhibiting proliferation (deactivation): 143 fold
[2]; 40 and 80 mg/kg intraperitoneal
  change of maximum plasma concentration and area under the plasma concentration-time curve with increase in dose: linear increase
[2]; doses of 40 and 80 mg/kg intraperitoneal
  time to maximum plasma concentration: 2 to 3 h
[2]; 40 mg/kg intraperitoneal, model fit
  AUC(0-inf): 262 ± 10.8 µM·h
[2]; 80 mg/kg intraperitoneal, model fit
  AUC(0-inf): 606 ± 103 µM·h
[2]; 40 mg/kg, 40 mg/kg intraperitoneal, elimination phase, read-out: T1/2 (converted)
  half-life: 1.21 ± 0.06 h
[2]; 40 mg/kg, 40 mg/kg intraperitoneal, model fit, read-out: Cmax
  Cmax: 54.9 ± 2.38 µM
[2]; 40 mg/kg, 40 mg/kg intraperitoneal, model fit, read-out: Tmax
  Tmax: 1.75 ± 0.06 h
[2]; 40 mg/kg, 40 mg/kg intraperitoneal
  AUC(0-t): 382 µM·h
[2]; 40 mg/kg, 40 mg/kg intraperitoneal, read-out: Cmax-obs
  Cmax: 51.8 ± 7.46 µM
[2]; 40 mg/kg, 40 mg/kg intraperitoneal, read-out: Tmax-obs
  Tmax: 2 h
[2]; 80 mg/kg, 80 mg/kg intraperitoneal, elimination phase, read-out: T1/2 (converted)
  half-life: 1.79 ± 0.36 h
[2]; 80 mg/kg, 80 mg/kg intraperitoneal, model fit, read-out: Cmax
  Cmax: 86.4 ± 10.4 µM
[2]; 80 mg/kg, 80 mg/kg intraperitoneal, model fit, read-out: Tmax
  Tmax: 2.58 ± 0.36 h
[2]; 80 mg/kg, 80 mg/kg intraperitoneal
  AUC(0-t): ~900 µM·h
[2]; 80 mg/kg, 80 mg/kg intraperitoneal, read-out: Cmax-obs
  Cmax: 77.3 ± 14.7 µM
[2]; 80 mg/kg, 80 mg/kg intraperitoneal, read-out: Tmax-obs
  Tmax: 4 h
[2]; 80 mg/kg, doses of 40 and 80 mg/kg intraperitoneal, read-out: plasma half-life
  half-life: 1.2 to 1.8 h
[3]
  tumour response: regressed following each drug administration
[4]
  first order rate of fragmentation kfrag: 30 s⁻¹
H520 cells; H520, oxic
  fold less potent than the inhibitor compound 112 at inhibiting proliferation (deactivation): 307 fold
H520 cells; ratio of oxic and anoxic IC50
  Hypoxic Cytotoxicity Ratio (HCR), H520: 27
H520 cells; read-out: Cellular Anti-proliferative IC50, H520, Anoxic, 4 hours of anoxia, remainder of assay oxic
  IC50: 47 nM
H520 cells; read-out: Cellular Anti-proliferative IC50, H520, Oxic, oxic conditions
  IC50: 1260 nM
[5]
  metabolism of prodrug and release of FGFR inhibitor compound 112 in tumours: hypoxia-selective metabolism
[6]; q2dx3
  median survival time: 18 days
[6]; q3dx3
  median survival time: 20 days
[6]; q4dx3
  median survival time: 21 days
[6]; q5dx3
  median survival time: 22 days
